In patent publication US8987250B2 (Gilead Sciences, Inc., priority 2012, dated 2015):
Like-named read-outs stand apart in the source and are kept apart here.

Tested on: HIV-IIIb
Experiment: Test A: Antiviral Assay in MT4 Cells
Type: cell-based
Conditions: Table 1, MT-4 cells infected with HIV-IIIb, 5 days of incubation, CellTiter-Glo, read-out: EC50
Method: The antiviral properties of a compound of the invention may be determined using Test A described below.
Test A: Antiviral Assay in MT4 Cells
For the antiviral assay utilizing MT-4 cells, 0.4 μL of […] test concentration of 3-fold serially diluted compound in DMSO was added to 40 μL of cell growth medium (RPMI 1640, 10% FBS, 1% penicilline/Streptomycine, 1% L-Glutamine, 1% HEPES) in each well of 384-well assay plates (10 concentrations) in quadruplicate.
One mL aliquots of 2×10e6 MT-4 cells were pre-infected for 1 and 3 hours respectively, @ 37° C. with 25 uL (MT4) or of either cell growth medium (mock-infected) or a fresh 1:250 dilution of an HIV-IIIb concentrated ABI stock (0.004m.o.i. for MT4 cells). Infected and uninfected cells were diluted in cell growth medium and 35 uL of 2000 (for MT4) cells was added to each well of the assay plates.
Assay plates were then incubated in a 37° C. incubator. After 5 days of incubation, […] of 2× concentrated CellTiter-Glo™ Reagent (catalog #G7573, Promega Biosciences, Inc., Madison, Wis.) was added to each well of the assay plate. Cell lysis was carried out by incubating at room temperature for 2-3 min and then chemiluminescence was read using the Envision reader (PerkinElmer). […]

[1] = Human immunodeficiency virus 1, IIIB, MT4, 120 h

| SMILES | EC50 [nM] | EC50 [1] [nM] |
| --- | --- | --- |
| Cc1cc2nc(N3CCCC3)sc2c(-c2ccc3c4c(ccnc24)CCO3)c1[C@H](OC(C)(C)C)C(=O)O (atropisomer, axis not shown) [Compound 50, (S)-2-tert-butoxy-2-((S)-7-(2,3-dihydropyrano[4,3,2-de]quinolin-7-yl)-5-methyl-2-(pyrrolidin-1-yl)benzo[d]thiazol-6-yl)acetic acid] | 52.8 | – |
| Cc1cc2nc(N3CCCC3)sc2c(-c2ccc3c4c(ccnc24)CCO3)c1[C@H](OC(C)(C)C)C(=O)O (atropisomer, axis not shown) [Compound 51, (S)-2-tert-butoxy-2-((R)-7-(2,3-dihydropyrano[4,3,2-de]quinolin-7-yl)-5-methyl-2-(pyrrolidin-1-yl)benzo[d]thiazol-6-yl)acetic acid] | 5250 | – |
| Cc1cc2nc(N3CC(F)(F)C3)sc2c(-c2ccc3c4c(ccnc24)CCO3)c1[C@H](OC(C)(C)C)C(=O)O (atropisomer, axis not shown) [Compound 52, (S)-2-tert-butoxy-2-((S)-2-(3,3-difluoroazetidin-1-yl)-7-(2,3-dihydropyrano[4,3,2-de]quinolin-7-yl)-5-methylbenzo[d]thiazol-6-yl)acetic acid] | 53.4 | – |
| Cc1cc2nc(N3CC(F)(F)C3)sc2c(-c2ccc3c4c(ccnc24)CCO3)c1[C@H](OC(C)(C)C)C(=O)O (atropisomer, axis not shown) [Compound 53, (S)-2-tert-butoxy-2-((R)-2-(3,3-difluoroazetidin-1-yl)-7-(2,3-dihydropyrano[4,3,2-de]quinolin-7-yl)-5-methylbenzo[d]thiazol-6-yl)acetic acid] | 37500 | – |
| COC1CN(c2nc3cc(C)c([C@H](OC(C)(C)C)C(=O)O)c(-c4ccc5c6c(ccnc46)CCO5)c3s2)C1 (atropisomer, axis not shown) [Compound 54, (S)-2-tert-butoxy-2-((S)-7-(2,3-dihydropyrano[4,3,2-de]quinolin-7-yl)-2-(3-methoxyazetidin-1-yl)-5-methylbenzo[d]thiazol-6-yl)acetic acid] | 274 | – |
| COC1CN(c2nc3cc(C)c([C@H](OC(C)(C)C)C(=O)O)c(-c4ccc5c6c(ccnc46)CCO5)c3s2)C1 (atropisomer, axis not shown) [Compound 55, (S)-2-tert-butoxy-2-((R)-7-(2,3-dihydropyrano[4,3,2-de]quinolin-7-yl)-2-(3-methoxyazetidin-1-yl)-5-methylbenzo[d]thiazol-6-yl)acetic acid] | 53000 | – |
| Cc1cc2nc(N3CC(F)C3)sc2c(-c2ccc3c4c(ccnc24)CCO3)c1[C@H](OC(C)(C)C)C(=O)O (atropisomer, axis not shown) [Compound 56, (S)-2-tert-butoxy-2-((S)-7-(2,3-dihydropyrano[4,3,2-de]quinolin-7-yl)-2-(3-fluoroazetidin-1-yl)-5-methylbenzo[d]thiazol-6-yl)acetic acid] | – | 62.4 |
| Cc1cc2nc(N3CC(C)C3)sc2c(-c2ccc3c4c(ccnc24)CCO3)c1[C@H](OC(C)(C)C)C(=O)O (atropisomer, axis not shown) [Compound 57, (S)-2-tert-butoxy-2-((S)-7-(2,3-dihydropyrano[4,3,2-de]quinolin-7-yl)-5-methyl-2-(3-methylazetidin-1-yl)benzo[d]thiazol-6-yl)acetic acid] | – | 147 |
| Cc1cc2nc(N3CC(S(C)(=O)=O)C3)sc2c(-c2ccc3c4c(ccnc24)CCO3)c1[C@H](OC(C)(C)C)C(=O)O (atropisomer, axis not shown) [Compound 58, (S)-2-tert-butoxy-2-((S)-7-(2,3-dihydropyrano[4,3,2-de]quinolin-7-yl)-5-methyl-2-(3-(methylsulfonyl)azetidin-1-yl)benzo[d]thiazol-6-yl)acetic acid] | – | 3520 |
| Cc1c([C@H](OC(C)(C)C)C(=O)O)c(-c2ccc3c4c(ccnc24)CCO3)c2sc(N3CCC3)nc2c1F (atropisomer, axis not shown) [Compound 76, (S)-2-((S)-2-(azetidin-1-yl)-7-(2,3-dihydropyrano[4,3,2-de]quinolin-7-yl)-4-fluoro-5-methylbenzo[d]thiazol-6-yl)-2-tert-butoxyacetic acid] | – | 26 |
